In US5945508A, “Substance P treatment for immunostimulation” (priority 1997, dated 1999):

Key:
immune system organs = test: Organ weight and total cell recovery; assay type: in vivo, C57B16 mice; set-up: Spleen Cell Number / Thymus Cell Number / LN Cell Number / BM Cell Number: scale not given here; Spleen Weight / Thymus Weight: unit not given here
Description: (§1) At 24 hours after the last exposure, the animals were sacrificed and the effects of exposure on the immune system examined. Immune organs (spleen, thymus, blood, lymph nodes and bone marrow) were recovered and analyzed for effects on organ weight, total cell numbers, immune cell populations (by differentials), and lymphocyte subpopulations (by flow cytometry). Assays were also performed to examine the effects of exposure on immune function. […] Similar effects on immune cell subpopulations were also observed in lymph nodes. In the thymus it appeared that the immature CD4^+ CD8^+ cells were differentially lost due to exposure. […] However, these effects are prevented or ameliorated by treatment of the animals with Substance P.
For each of the immune system organs (spleen, lymph nodes and thymus) the wet weight is determined after removal using a microbalance. After processing of the organs into single cell suspensions the cell numbers and viabilities are determined using trypan blue staining. Histochemical differentials are performed at this time. Cell numbers and viabilities are again determined after centrifugation of the cell suspensions through density gradients to obtain mononuclear cells.

[1] = system: lymphocyte subpopulations; test: Flow cytometric analyses (FACS); assay type: in vivo, C57B16 mice
Description: as §1
One- and two-color FACS analyses are performed using a Becton-Dickinson FACStar Plus flow cytometer. Cells are stained with the indicated monoclonal antibodies according to standard procedures (Harris et al., id). Cells alone and cells reacted with conjugated isotype control, irrelevant mAbs are used as controls. Data is presented as the percentage of cells staining positive for each individual mAb.

[2] = JP-8 1000 mg/m^3 + SP, nSP (1 nM), CP or RP

COc1ccccc1CN[C@H]1C2CCN(CC2)[C@H]1C(c1ccccc1)c1ccccc1 [CP, reference compound]
BM Cell Number (immune system organs; [2]): 22
LN Cell Number (immune system organs; [2]): 7.1
Spleen Cell Number (immune system organs; [2]): 7
Spleen Weight (immune system organs; [2]): 0.16
Thymus Cell Number (immune system organs; [2]): 75
Thymus Weight (immune system organs; [2]): 0.12
BM Cell Number (immune system organs; dose 0 (no JP-8) + SP or CP): 29
LN Cell Number (immune system organs; dose 0 (no JP-8) + SP or CP): 9.8
Spleen Cell Number (immune system organs; dose 0 (no JP-8) + SP or CP): 16
Spleen Weight (immune system organs; dose 0 (no JP-8) + SP or CP): 0.12
Thymus Cell Number (immune system organs; dose 0 (no JP-8) + SP or CP): 50
Thymus Weight (immune system organs; dose 0 (no JP-8) + SP or CP): 0.12
BM CD3 positive cells [1, 2]: 14%
BM CD4 positive cells [1, 2]: 7%
BM CD8 positive cells [1, 2]: 3%
BM CD45 positive cells [1, 2]: 41%
BM MAC1 positive cells [1, 2]: 26%
LN CD3 positive cells [1, 2]: 95%
LN CD4 positive cells [1, 2]: 35%
LN CD8 positive cells [1, 2]: 23%
PBL CD3 positive cells [1, 2]: 50%
PBL CD4 positive cells [1, 2]: 20%
PBL CD8 positive cells [1, 2]: 15%
PBL CD45 positive cells [1, 2]: 27%
PBL MAC1 positive cells [1, 2]: 6%
Spleen CD3 positive cells [1, 2]: 34%
Spleen CD4 positive cells [1, 2]: 16%
Spleen CD8 positive cells [1, 2]: 9%
Spleen CD45 positive cells [1, 2]: 26%
Spleen MAC1 positive cells [1, 2]: 10%
Thymus CD3 positive cells [1, 2]: 17%
Thymus DN cells [1, 2]: 12%
Thymus DP cells [1, 2]: 65%
Thymus SP4 cells [1, 2]: 17%
Thymus SP8 cells [1, 2]: 7%
BM CD3 positive cells ([1]; dose 0 (no JP-8) + SP or CP): 16%
BM CD4 positive cells ([1]; dose 0 (no JP-8) + SP or CP): 9%
BM CD8 positive cells ([1]; dose 0 (no JP-8) + SP or CP): 7%
BM CD45 positive cells ([1]; dose 0 (no JP-8) + SP or CP): 27%
BM MAC1 positive cells ([1]; dose 0 (no JP-8) + SP or CP): 33%
LN CD3 positive cells ([1]; dose 0 (no JP-8) + SP or CP): 49%
LN CD4 positive cells ([1]; dose 0 (no JP-8) + SP or CP): 25%
LN CD8 positive cells ([1]; dose 0 (no JP-8) + SP or CP): 12%
LN CD45 positive cells ([1]; dose 0 (no JP-8) + SP or CP): 15%
LN MAC1 positive cells ([1]; dose 0 (no JP-8) + SP or CP): 1%
PBL CD3 positive cells ([1]; dose 0 (no JP-8) + SP or CP): 72%
PBL CD4 positive cells ([1]; dose 0 (no JP-8) + SP or CP): 29%
PBL CD8 positive cells ([1]; dose 0 (no JP-8) + SP or CP): 13%
PBL CD45 positive cells ([1]; dose 0 (no JP-8) + SP or CP): 12%
PBL MAC1 positive cells ([1]; dose 0 (no JP-8) + SP or CP): 7%
Spleen CD3 positive cells ([1]; dose 0 (no JP-8) + SP or CP): 32%
Spleen CD4 positive cells ([1]; dose 0 (no JP-8) + SP or CP): 21%
Spleen CD8 positive cells ([1]; dose 0 (no JP-8) + SP or CP): 7%
Spleen CD45 positive cells ([1]; dose 0 (no JP-8) + SP or CP): 24%
Spleen MAC1 positive cells ([1]; dose 0 (no JP-8) + SP or CP): 3%
Thymus CD3 positive cells ([1]; dose 0 (no JP-8) + SP or CP): 18%
Thymus DN cells ([1]; dose 0 (no JP-8) + SP or CP): 13%
Thymus DP cells ([1]; dose 0 (no JP-8) + SP or CP): 75%
Thymus SP4 cells ([1]; dose 0 (no JP-8) + SP or CP): 12%
Thymus SP8 cells ([1]; dose 0 (no JP-8) + SP or CP): 3%

COc1ccccc1CC(=N)N1C[C@@H]2C(=O)CCC(c3ccccc3)(c3ccccc3)[C@@H]2C1 [RP, reference compound]
BM Cell Number (immune system organs; [2]): 27
LN Cell Number (immune system organs; [2]): 6.8
Spleen Cell Number (immune system organs; [2]): 37
Spleen Weight (immune system organs; [2]): 0.10
Thymus Cell Number (immune system organs; [2]): 72
Thymus Weight (immune system organs; [2]): 0.03
BM CD3 positive cells [1, 2]: 12%
BM CD4 positive cells [1, 2]: 6%
BM CD8 positive cells [1, 2]: 5%
BM CD45 positive cells [1, 2]: 42%
BM MAC1 positive cells [1, 2]: 10%
LN CD3 positive cells [1, 2]: 96%
LN CD4 positive cells [1, 2]: 41%
LN CD8 positive cells [1, 2]: 29%
LN CD45 positive cells [1, 2]: 18%
LN MAC1 positive cells [1, 2]: 1%
PBL CD3 positive cells [1, 2]: 71%
PBL CD4 positive cells [1, 2]: 18%
PBL CD8 positive cells [1, 2]: 10%
PBL CD45 positive cells [1, 2]: 38%
PBL MAC1 positive cells [1, 2]: 9%
Spleen CD3 positive cells [1, 2]: 47%
Spleen CD4 positive cells [1, 2]: 16%
Spleen CD8 positive cells [1, 2]: 5%
Spleen CD45 positive cells [1, 2]: 39%
Spleen MAC1 positive cells [1, 2]: 1%
Thymus CD3 positive cells [1, 2]: 16%
Thymus DN cells [1, 2]: 10%
Thymus DP cells [1, 2]: 70%
Thymus SP4 cells [1, 2]: 12%
Thymus SP8 cells [1, 2]: 8%

nSP: 1 nanomolar substance P
BM Cell Number (immune system organs; [2]): 31
LN Cell Number (immune system organs; [2]): 10.8
Spleen Cell Number (immune system organs; [2]): 58
Spleen Weight (immune system organs; [2]): 0.11
Thymus Cell Number (immune system organs; [2]): 78
Thymus Weight (immune system organs; [2]): 0.04
BM CD3 positive cells [1, 2]: 13%
BM CD4 positive cells [1, 2]: 10%
BM CD8 positive cells [1, 2]: 3%
BM CD45 positive cells [1, 2]: 43%
BM MAC1 positive cells [1, 2]: 16%
LN CD3 positive cells [1, 2]: 95%
LN CD4 positive cells [1, 2]: 42%
LN CD8 positive cells [1, 2]: 25%
LN CD45 positive cells [1, 2]: 23%
LN MAC1 positive cells [1, 2]: 0%
PBL CD3 positive cells [1, 2]: 78%
PBL CD4 positive cells [1, 2]: 25%
PBL CD8 positive cells [1, 2]: 8%
PBL CD45 positive cells [1, 2]: 29%
PBL MAC1 positive cells [1, 2]: 2%
Spleen CD3 positive cells [1, 2]: 60%
Spleen CD4 positive cells [1, 2]: 15%
Spleen CD8 positive cells [1, 2]: 5%
Spleen CD45 positive cells [1, 2]: 41%
Spleen MAC1 positive cells [1, 2]: 1%
Thymus CD3 positive cells [1, 2]: 25%
Thymus DN cells [1, 2]: 7%
Thymus DP cells [1, 2]: 69%
Thymus SP4 cells [1, 2]: 16%
Thymus SP8 cells [1, 2]: 7%
